In PMC6801448, “The Antioxidant and Antiproliferative Activities of 1,2,3-Triazolyl-L-Ascorbic Acid Derivatives” (International Journal of Molecular Sciences, 2019):
Like-named read-outs stand apart in the source and are kept apart here.

Legend:
[1] = tested on: MCF-7 (breast adenocarcinoma); assay: MTT proliferation assay, MCF-7; assay type: cell-based, Human; settings: Homo sapiens, MCF7; 72 h, MTT
Experimental: (§1) Human tumor cell lines HeLa (cervical carcinoma), SW620 (colorectal adenocarcinoma, metastatic), A549 (lung adenocarcinoma), MCF−7 (breast adenocarcinoma), CFPAC-1 (pancreatic adenocarcinoma, metastatic), HCT-116 (colorectal carcinoma), and HepG2 (hepatocellular carcinoma), and normal cell lines HFF-1 (foreskin fibroblasts) and WI-38 (immortalized human lung fibroblast), were from the US American Type Culture Collection (ATCC, Manassas, VA, USA). Cells were cultured in a liquid nutrient medium (Dulbecco’s Modified Eagle Medium, LONZA, Basel, Switzerland) supplemented with 10% fetal bovine serum (FBS, Gibco, Grand Island, NY, USA), 2 mM L-glutamine (GIBCO, Grand Island, NY, USA), 100 μg/mL penicillin, and 100 μg/mL streptomycin (LONZA, Basel, Switzerland), in an incubator (NÜVE, Ankara, Turkey), at a humid atmosphere with 5% CO2 at 37 °C. Trypsin/EDTA Solution (Lonza, Basel, Switzerland), was used for cell passaging and cell detachment.
(§2) Adherent cells were seeded on 96 well microtiter plates (Falcon, New York, NY, USA) at a seeding density of 5000 cells per well, added in 150 μL of cell suspension in a nutrient medium. 24 h after seeding, cells were treated with compound 4b–4g, 4i, 4k–4t, 4v, 7c–7g, and 7i–7q dilutions in the range of 0.01 μM to 100 μM. L-ascoric acid (Sigma Aldrich, Darmstadt, Germany) and Carboxyamidotriazole (Sigma Aldrich, Darmstadt, Germany) were used as control compounds. Incubation of the cells with the compounds were performed for 72 h in a 5% CO2, in humid atmosphere at 37 °C. After incubation, nutrient medium was removed and 40 μL of the MTT reagent ([…]-2,5-diphenyltetrazole bromide (Invitrogen, Carlsbad, CA, USA) was added to each well. 3 h after incubation, 160 μL of DMSO (VWR CHEMICALS, Radnor, PA, USA) were added to each well to dissolve the crystals of purple formazane. The absorbance was measured at 570 nm (TECAN SUNRISE Microtiter plate reader (Männedorf, Switzerland). The experimentally measured optical densities (OD) were converted to the PG (percentage of growth), using the formulas according to the protocol assumed by NIH (National Institute of Health). The IC50 values (concentration causing 50% cell growth inhibition) for each compound were calculated by regression analysis of the survival count curve of the concentrations of the tested compounds. The results were processed in Excel 2010 (Microsoft, Redmond, WA, USA).

WI-38 (lung fibroblasts) = assay: MTT proliferation assay, WI-38; assay type: cell-based; settings: Homo sapiens, 72 h, normal lung fibroblasts
Experimental: as §1, §2

[2] = tested on: CFPAC-1 (ductal pancreatic adenocarcinoma); assay: MTT proliferation assay, CFPAC-1; assay type: cell-based; settings: Homo sapiens, 72 h
Experimental: as §1, §2

[3] = DPPH radical scavenging assay; assay type: biochemical
Experimental: Likewise, L-ASA, the 1,2,3-triazole L-ASA derivatives with free C2-OH and C3-OH groups were expected to be potent antioxidants. Therefore, they were tested as radical scavengers by reaction with the stable free radical 2,2-diphenyl-1-picrylhydrazyl (DPPH^•).
Antioxidant capacity of selected compounds was assessed by 2,2-diphenyl-1-picrylhydrazyl assay (DPPH, Sigma Aldrich, Darmstadt, Germany), in which the antioxidant activity of compounds is measured by the reaction between a stable radical of 1,1-diphenyl-2-picylhydrazil (DPPH^•) and a selected compound according to the manufacturer recommendations. Briefly, compounds 4b–4e, 4f–4h, 4k, 4l, 4o, 4p–4s, 4t, 4v, 7c–7f, 7i–7n, 7q, 7p, and 7o were tested at 0.06, 0.12, 0.18, 0.23, 0.25, and 0.28 mM. L-ascorbic acid was used as the reference compound. Absorbance was measured 5 and 10 min after incubation of the compounds with the DPPH reagent. The reduction of DPPH with selected compounds was monitored by measuring the absorbance at a wavelength of 517 nm on the monochromator (Infinite M200 PRO, TECAN, Männedorf, Switzerland).

[4] = tested on: SW620 (colorectal adenocarcinoma, metastatic); assay: MTT proliferation assay, SW620; assay type: cell-based; settings: Homo sapiens, SW-620, 72 h
Experimental: as §1, §2

[5] = tested on: HCT-116 (colorectal carcinoma); assay: MTT proliferation assay, HCT-116; assay type: cell-based; settings: Homo sapiens, 72 h
Experimental: as §1, §2

[6] = tested on: HeLa (cervical carcinoma); assay: MTT proliferation assay, HeLa; assay type: cell-based; settings: Homo sapiens, 72 h
Experimental: as §1, §2

[7] = tested on: HepG2 (hepatocellular carcinoma); assay: MTT proliferation assay, HepG2; assay type: cell-based; settings: Homo sapiens, 72 h
Experimental: as §1, §2

[8] = tested on: HFF-1 (foreskin fibroblasts); assay: MTT proliferation assay, HFF-1; assay type: cell-based; settings: Homo sapiens, 72 h, normal foreskin fibroblasts
Experimental: as §1, §2

[9] = tested on: A549 (lung adenocarcinoma); assay: MTT proliferation assay, A549; assay type: cell-based; settings: Homo sapiens, 72 h
Experimental: as §1, §2

[10] = 5 min treatment, read-out: IC50 of DPPH• inhibition, Treatm. 5 min
[11] = 10 min treatment, read-out: IC50 of DPPH• inhibition, Treatm. 10 min

SMILES	IC50 [1] [µM]	IC50 (WI-38 (lung fibroblasts)) [µM]	IC50 [2] [µM]	melting point [°C]	IC50 [3, 10] [µM]	IC50 [3, 11] [µM]	IC50 [4] [µM]	IC50 [5] [µM]	IC50 [6] [µM]	IC50 [7] [µM]	IC50 [8] [nM]	IC50 [9] [µM]
CCCCCc1ccc(-c2cn(C[C@H](O)[C@H]3OC(=O)C(O)=C3O)nn2)cc1 [Compound 4k, 6-deoxy-6-[4-(4-pentylphenyl)-1,2,3-triazol-1-yl]-L-ascorbic acid]	26.9	> 100	> 100	237 to 239	210 ± 70	130 ± 40	> 100	> 100	> 100	> 100	210	> 100
Cc1ccc(S(=O)(=O)NCc2cn(C[C@H](O)[C@H]3OC(=O)C(O)=C3O)nn2)cc1 [Compound 4r]	> 100	> 100	> 100	125 to 127	250	270 ± 20	> 100	> 100	> 100	> 100	> 100000	> 100
O=C1O[C@H]([C@@H](O)Cn2cc(-c3ccccc3O)nn2)C(O)=C1O [Compound 4i, 6-deoxy-6-[2-hydroxyphenyl-1,2,3-triazol-1-yl]-L-ascorbic acid]	> 100	> 100	> 100	129 to 131	> 280	> 280	> 100	> 100	> 100	> 100	920	> 100
CCCCCCCCCCc1cn(C[C@H](O)[C@H]2OC(=O)C(O)=C2O)nn1 [Compound 4n, 6-(4-decyl-1,2,3-triazol-1-yl)-6-deoxy-L-ascorbic acid]	> 100	> 100	> 100	140 to 142	150 ± 60	100 ± 30	> 100	> 100	> 100	> 100	60	> 100
O=C1O[C@H]([C@@H](O)Cn2cc(CNS(=O)(=O)c3ccc(F)cc3Cl)nn2)C(O)=C1O [Compound 4t]	> 100	> 100	> 100	198 to 200	220 ± 80	120 ± 20	> 100	> 100	> 100	> 100	> 100000	> 100
O=C1O[C@H]([C@@H](O)Cn2cc(CCO)nn2)C(O)=C1O [Compound 4q, 6-deoxy-6-(4-(2-hydroxyethyl)-1,2,3-triazol-1-yl)-L-ascorbic acid]	> 100	> 100	> 100	184 to 186	240 ± 20	230	> 100	63.3	> 100	> 100	> 100000	> 100
O=C1O[C@H]([C@@H](O)Cn2cc(CNS(=O)(=O)c3ccc(Cl)cc3)nn2)C(O)=C1O [Compound 4s]	> 100	> 100	> 100	132 to 134	270 ± 20	250	> 100	> 100	> 100	> 100	400	> 100
CCCCc1cn(C[C@H](O)[C@H]2OC(=O)C(O)=C2O)nn1 [Compound 4m, 6-(4-butyl-1,2,3-triazol-1-yl)-6-deoxy-L-ascorbic acid]	> 100	> 100	> 100	98 to 99	> 280	> 280	> 100	> 100	> 100	> 100	120	> 100
O=C1O/C(=C\Cn2cc(-c3cc(F)cc(F)c3)nn2)C(O)=C1O [Compound 7d]	> 100	> 100	> 100	≥ 200	230	230	> 100	> 100	> 100	> 100	–	> 100
CCCCc1cn(C/C=C2\OC(=O)C(O)=C2O)nn1 [Compound 7m, 6-[4-butyl-1,2,3-triazole-1-yl]-4,5-didehydro-5,6-dideoxy-L-ascorbic acid]	> 100	> 100	> 100	180 to 183	200	190	> 100	> 100	> 100	> 100	–	> 100
Cc1ccc(-c2cn(C/C=C3\OC(=O)C(O)=C3O)nn2)cc1 [Compound 7f, 6-[4-tolyl-1,2,3-triazole-1-yl]-4,5-didehydro-5,6-dideoxy-L-ascorbic acid]	> 100	> 100	> 100	188 to 192	100 ± 20	100 ± 20	> 100	> 100	> 100	> 100	–	> 100
CC(C)(C)c1cn(C/C=C2\OC(=O)C(O)=C2O)nn1 [Compound 7o, 6-[4-tert-butyl-1,2,3-triazole-1-yl]-4,5-didehydro-5,6-dideoxy-L-ascorbic acid]	> 100	> 100	> 100	182 to 184	200	200	> 100	> 100	> 100	> 100	–	> 100
O=C1O[C@H]([C@@H](O)Cn2cc(CSC(=S)N3CCNCC3)nn2)C(O)=C1O [Compound 4v]	37.3	> 100	> 100	≥ 250	270 ± 10	270	> 100	> 100	> 100	> 100	–	98
CCCCCCCCCCc1cn(C/C=C2\OC(=O)C(O)=C2O)nn1 [Compound 7n, 6-(4-decyl-1,2,3-triazol-1-il)-4,5-didehydro-5,6-dideoxy-L-ascorbic acid]	> 100	> 100	> 100	169 to 171	140	100	> 100	> 100	> 100	> 100	–	> 100
COc1ccc(-c2cn(C/C=C3\OC(=O)C(O)=C3O)nn2)cc1 [Compound 7g, 4,5-didehydro-5,6-dideoxy-6-[4-(4-methoxyphenyl)-1,2,3-triazole-1-yl]-L-ascorbic acid]	> 100	> 100	> 100	198 to 199	> 280	260	> 100	> 100	> 100	> 100	–	> 100
